We go through one compound from US20250186403A1 (ARIZONA BOARD OF REGENTS ON BEHALF OF THE UNIVERSITY OF …, priority 2022, published 2025).

One series is described as follows: Pharmacokinetics in mice. It counts as in vivo. The following applies: 40 mg/kg BW oral gavage, male C57BL/6 mice, plasma. The method, then:
Blood samples were collected at 0, 0.5, 1, 2, 4, 8, 12, 16, 24, and 36 h after oral gavage. […] Other PK parameters are in Table 4. The values represent means±SD. […] On day 0, mice were infected with H99 (10^7 cells/mice) intranasally or mock-infected with PBS. Mice were euthanized on day 5, and lungs were dissected out, homogenized in RPMI-1640-MOPS media, and plated onto Sabouraud dextrose agar plates containing antibiotics. Plates were incubated at 30° C. for 72 h, and colonies were counted. […] VC: Vehicle control, (90% corn oil, 10% DMSO). Dpi: Days post-infection. CFU: Colony-forming units.
Pharmacokinetics in mice: C57BL/6 mice (male, 2-3 months old) were obtained from breeding stocks maintained at the University of Arizona. All mice were housed under conditions of controlled temperature (22° C.) with the on-off light cycle, food, and water provided ad libitum and were fasted for 12 h before administration of the compound. […] Blood samples were collected from the tail vein using heparinized capillary tubes at 0, 0.5, 1, 2, 4, 8, 12, 16, 24, and 36 h after oral gavage. Plasma was separated and stored at −30° C. until use. For extraction of the compound, 5 μl of plasma from each mouse were mixed with 30 μL methanol and 10 μl of internal standard (IS; UAWJ102 50 ng/ml). The mixture was vortexed for 30 seconds and diluted with 760 µL Milli Q water, and loaded onto an ISOLUTER C18 SPE Columns (1 ml/100 mg, Biotage, Salem, NH) pre-conditioned with 1 ml methanol followed by 1 ml water, and the cartridge was then washed with 1 ml water. The analytes were finally eluted from the cartridges with 1 ml methanol containing 5% ammonia solution, dried with nitrogen, and reconstituted in 100 μl methanol.
The analyte was detected and quantified using LC-MS (Agilent 1290 UPLC system Agilent Technologies, Santa Clara, CA) and a Sciex Qtrap6500+ Mass Spectrometer (AB SCIEX, Framingham, MA). Analytes were separated on an EclipsePlus C18 column (2.1×50 mm, 1.8 μm, Agilent) at a temperature of 35° C., with mobile phase A containing 0.1% formic acid (v/v) in water and mobile phase B containing 0.1% formic acid (v/v) in methanol. Elution was at a flow rate of 0.2 mL/min as follows: 10% B (0-0.5 min), 10% B→95% B (0.5-3.5 min), 95% B (3.5-7 min), […] (7-7.1 min), 10% B (7.1-10 min). The MS was operated in the positive ion mode, using electrospray ionization. The ion spray voltage and temperature were set at 5000 V and 500° C., respectively. Curtain gas, ion source gas 1, and ion source gas 2 were set at 25, 50, 50 psi, respectively.

Series [1] deals with Cne-WT in RAW 264.7 macrophages. Put plainly: Phagocytosis assay (macrophage intracellular infection model). It is filed as cell-based, Cryptococcus neoformans. Conditions: for reduction of intracellular Cne in macrophages: 24 h, macrophage lysate. The method, then:
FIGS. 1B, 1C, and 1D show phagocytosis assays. RAW 264.7 cells were seeded in 24 well plates and differentiated into macrophages using PMA. Media was replaced with fresh media containing opsonized Cne-WT and incubated at 37° C. for 8 h. Cells were washed 3 times with PBS to remove non-phagocytosed fungal cells. […] Culture supernatants were diluted and plated onto SD agar plates for tittering the fungal load. The cells were washed thrice with PBS and homogenized with a small homogenizer, diluted, and plated on SD agar plates. Colonies were counted after 72 h. […] Treatment groups were compared with unpaired Student's t-test. p<0.05 is considered significant. […] Insert: enlarged view of the phagocytosed Cne cells. The cells were permeabilized with methanol and stained with Giemsa stain. CFU: […] Cne: Cryptococcus neoformans.
Phagocytosis assay: Mouse monocyte/macrophage-like cells RAW 264.7 were seeded in the six-well plate in DMEM media with 10% FBS and incubated at 37° C. in a CO2 incubator. Once it reached 70% confluently, the cells were differentiated into macrophages by replacing the culture supernatant with fresh media containing 100 nM phorbol 12-myristate 13-acetate (PMA) and incubated at 37° C. for 48 h in a CO2 incubator. Differentiated cells in six-well plates were washed once with PBS to remove loosely bound cells. Cne-WT cells were grown overnight in the SD broth media and washed thrice in 0.1 mM PBS, opsonized with 20% human complement serum (Sigma, USA) and 20 μg glucuronoxylomannan specific antibody (clone 18B7, EMD Millipore, USA) by incubating at 37° C. for 30 min with rotating end to end. The Cne cells were washed thrice with PBS to remove unbound antibodies and serum components. The opsonized Cne cells were added to the macrophages at 1:10 ratio and incubated at 37° C. for 10 h. […] The fungal load in the media and the cells was estimated. For tittering, 100 μl of the culture supernatant was plated onto the SD-agar plates with tenfold dilutions. The cells were washed with PBS, scraped, and harvested in PBS, homogenized with a disposable homogenizer. A volume of 30 μl was mixed with 60 μl SD media and plated onto the SD agar plates. The plates were incubated at 30° C. for 72 h, and colonies were counted.

Setting [2] is: Cryptococcus neoformans, RAW264.7, 24 h, read-out: inhibition of released Cne.

On to `CNc1ccc2oc(C[C@H]3O[C@@]4(CC[C@H]3C)O[C@H]([C@H](C)C(=O)c3ccc[nH]3)[C@H](C)C[C@H]4C)nc2c1C(=O)O` [CMN, calcimycin], for which, in the series “Pharmacokinetics in mice” (mean ± S.D. n = 5), the t½ – broadly, how long it takes for the measured level to halve – stood at 7.2 h. Also, in the series “Pharmacokinetics in mice” (male, C57BL/6, mouse, po, 40 mg/kg, mean ± S.D. n = 5), the time of peak concentration (Tmax) (as a rule, the time at which the peak concentration occurs) is about 10 h. Besides, in “Pharmacokinetics in mice” (male, C57BL/6, mouse, po, 40 mg/kg, mean ± S.D. n = 5, read-out: t½ (converted)), the half-life was 7.6 h. For the same compound, the Cmax (usually the highest concentration seen after dosing) in the series “Pharmacokinetics in mice” (mouse, mean ± S.D. n = 5) came to 301 ng/mL. Also, in series [1] (0.3 μg/ml CMN), the “reduction of intracellular Cne in macrophages” value (shortened to “reduction of intracellular Cne”) is listed as 23%. Moreover, the “reduction of intracellular Cne” value in series [1] (0.6 μg/ml CMN) amounted to 50%. Moreover, the “reduction of intracellular Cne” value in series [1] (CMN) stood at 72%. In series [1] (setting [2]), the inhibition (as a rule, the drop in the measured response relative to a control, in per cent) at 0.3 µg/mL came to 41%; the inhibition at 0.6 µg/mL was found to be 59%; the inhibition at 1.3 µg/mL came to 69%. For the same compound, the “released Cne (significance)” value in series [1] (at 0.3 μg/ml) is reported as “significantly reduced”. Besides, the “growth of intracellular Cne in macrophages (significance)” value in series [1] (at 0.6 μg/ml) is recorded as “significantly reduced”.
